Experimental data taken from patent US8742113B2, “Furanone derivative” (SBI Biotech Co., Ltd., priority 2011, dated 2014).

How the values were obtained:
[1] = tested on: MCM2 phosphorylation in COLO205 cells; assay: Inhibitory effect on MCM2 phosphorylation using cells (Western blot); type: cell-based; details: Homo sapiens, COLO 205, 0.1 μM test compound, 24 hours, class by percent phosphorylation of MCM2, read-out: Test Example 2 Inhibitory effect on MCM2 phosphorylation
Procedure: [Inhibitory Effect on Phosphorylation Using Cells]
COLO205 cells derived from human colon adenocarcinoma (RCB2127, RIKEN BRC) were cultured in 10 cm dishes using RPMI-1640 medium (SIGMA, R8758) supplemented with 10% FCS (Equitech-bio) and 5% penicillin/streptomycin (GIBCO, 15140). After the cells were cultured to a confluence of 70 to 90%, the medium was removed, and the cells were treated with trypsin (2 mL, TrypLE Express, GIBCO, 12604-021) and then harvested using a new medium.
COLO205 cells were seeded in 6-well plates (FALCON, 35046) to 2.5×10^5 cells (1 ml) per well and cultured overnight in a 5% CO2 incubator. A drug solution, which was prepared by adding 1.5 μl of a 0.1-mM stock solution in DMSO of a test compound to 500 μl of medium, was added to each well (to a final drug concentration of 0.1 μM), and then cultured for another 24 hours.
Cells were cultured for 24 hours in the presence of a test compound, harvested using a similar way as described above, washed with PBS, and then pelletized and stored at −80° C. The frozen cells were thawed, subsequently suspended immediately in 2×SDS-PAGE electrophoresis buffer (1×10^5 cells per 10 μl), and heated at 95° C. for 10 minutes, leading to the dissolution and denaturation of the proteins. The resulting sample solutions were subjected to SDS-PAGE using a 5-20% gradient acrylamide gel (e-PAGEL (5-20%), ATTO, E-T520L). After the electrophoresis was completed, the gel was immersed in tris-glycine buffer supplemented with 20% methanol, and the proteins in the gel were transferred onto a PVDF membrane (MILLIPORE, Immobilon-P, IPVH00010) using a semi-dry transfer apparatus (TRNS-BLOT SD SEMI-DRY […] CELL, BIO RAD).
The transferred PVDF membrane was blocked with 5% skim milk (Difco Skim Milk, BD, 232100), and then subjected to reaction with an anti-MCM2 goat antibody (N-19, Santa Cruz, sc-9839) or anti-phosphorylated MCM2 rabbit antibody (S53) (Bethyl, A300-756A) as a primary antibody and additionally with an anti-α tubulin mouse antibody (Clone DM 1A, SIGMA, 9026) as an internal control. Each band was detected by chemiluminescence using an HRP-labeled anti-goat IgG donkey antibody (Santa Cruz, sc2020), anti-rabbit IgG sheep antibody (Roche, 12015218001), or anti-mouse IgG donkey antibody (Jackson ImmunoResearch, 715-035-151) as a secondary antibody. The combinations of and the diluted concentrations of the primary and secondary antibodies were as indicated below.
The bands which were detected were normalized using the amount of endogenous α-tubulin as a reference, and the percent phosphorylation of MCM2 was calculated for each of the tested compounds. Their inhibitory effects on MCM2 phosphorylation were indicated by a triple asterisk (***) in the case where the percent phosphorylation of MCM2 was less than 20%, by a dual asterisk (**) in the case where the percent phosphorylation of MCM2 was not less than 20% and less than 50%, and by a single asterisk (*) in the case where the percent phosphorylation of MCM2 was not less than 50% and less than 70%.

[2] = biological target: human Cdc7/human ASK complex protein (Homo sapiens (Human), UniProt O00311); assay: Inhibitory effect on Cdc7 protein kinase (MSA assay kit); type: biochemical; details: human Cdc7/human ASK complex, FITC-labeled MCM2 peptide substrate, reaction 5 hours at room temperature; read-out: Test Example 1 Cdc7 IC50 value
human Cdc7/human ASK complex protein, sequence (O00311 whole entry): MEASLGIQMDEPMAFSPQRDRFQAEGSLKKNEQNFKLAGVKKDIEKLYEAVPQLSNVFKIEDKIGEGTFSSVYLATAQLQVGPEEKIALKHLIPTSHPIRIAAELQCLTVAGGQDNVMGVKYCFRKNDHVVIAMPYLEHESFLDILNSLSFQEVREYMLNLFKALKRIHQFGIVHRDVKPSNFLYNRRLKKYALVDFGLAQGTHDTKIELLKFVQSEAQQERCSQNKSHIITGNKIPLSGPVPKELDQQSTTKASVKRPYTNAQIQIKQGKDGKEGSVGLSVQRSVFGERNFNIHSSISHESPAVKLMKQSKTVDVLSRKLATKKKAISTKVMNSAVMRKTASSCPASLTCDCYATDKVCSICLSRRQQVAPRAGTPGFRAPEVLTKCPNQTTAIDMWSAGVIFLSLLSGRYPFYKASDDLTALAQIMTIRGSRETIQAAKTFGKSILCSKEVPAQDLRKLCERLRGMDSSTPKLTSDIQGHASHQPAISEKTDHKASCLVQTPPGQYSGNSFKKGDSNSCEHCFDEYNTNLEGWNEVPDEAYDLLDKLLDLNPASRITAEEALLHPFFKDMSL
human Cdc7/human ASK complex protein, sequence (Q9UBU7 whole entry partner): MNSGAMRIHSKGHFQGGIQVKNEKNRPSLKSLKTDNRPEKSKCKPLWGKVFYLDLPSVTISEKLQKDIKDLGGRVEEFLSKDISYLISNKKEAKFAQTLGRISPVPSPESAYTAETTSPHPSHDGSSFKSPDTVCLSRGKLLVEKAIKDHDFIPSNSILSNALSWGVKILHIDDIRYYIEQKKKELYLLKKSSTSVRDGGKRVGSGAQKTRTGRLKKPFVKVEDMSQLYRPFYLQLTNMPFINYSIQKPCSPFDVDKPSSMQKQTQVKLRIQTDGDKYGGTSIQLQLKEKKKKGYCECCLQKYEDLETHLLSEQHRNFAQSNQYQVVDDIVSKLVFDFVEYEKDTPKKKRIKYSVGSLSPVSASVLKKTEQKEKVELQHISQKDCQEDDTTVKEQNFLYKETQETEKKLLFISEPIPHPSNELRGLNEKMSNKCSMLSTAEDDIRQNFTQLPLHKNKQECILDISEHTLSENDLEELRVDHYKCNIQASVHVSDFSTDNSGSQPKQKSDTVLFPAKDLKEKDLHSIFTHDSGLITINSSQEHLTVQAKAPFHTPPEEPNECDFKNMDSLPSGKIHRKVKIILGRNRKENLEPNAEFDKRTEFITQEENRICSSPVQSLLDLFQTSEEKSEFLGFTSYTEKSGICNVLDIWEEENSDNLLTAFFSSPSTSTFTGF
Procedure: [Inhibitory Effect on Cdc7 Protein Kinase]
Measurement of kinase activity was carried out using an MSA assay kit (QuickScout Screening Assist™ Kit, Carna Biosciences, Inc.).
Assay buffer (20 mM HEPES, 0.01% Triton X-100™, 2 mM dithiothreitol, pH 7.5) was used to prepare a substrate mixture solution comprising 4 μM of a kinase-reaction substrate (FITC-labeled MCM2 peptide), 40 mM MgCl2, and 20 μM ATP.
The enzyme supplied in the kit (human Cdc7/human ASK complex protein) was diluted in the assay buffer so as to be at 7 nM, thereby preparing an enzyme solution.
The stock solution of each test compound was diluted in DMSO to prepare diluted DMSO solutions of 10 concentrations (0.00003 mM, 0.0001 mM, 0.0003 mM, 0.001 mM, 0.003 mM, 0.01 mM, 0.03 mM, 0.1 mM, 0.3 mM, 1 mM), each of which was further diluted 25 times in the assay buffer to make a drug solution (a solution containing 4% DMSO).
The kinase reaction was performed in wells of a polypropylene 384-well plate in which 5 μl of each of the drug solutions or of a solvent (assay buffer containing 4% DMSO), 5 μl of the substrate mixture solution, and 10 μl of the enzyme solution were mixed. The assay buffer, instead of the enzyme solution, was added to blank wells. After the reaction at room temperature for 5 hours, 60 μl of the termination buffer supplied in the kit was added to each well to stop the reaction. The percent inhibition of each reaction was determined using a LabChip EZ Reader II system (manufactured by Caliper Life Sciences), according to the protocol provided with the assay kit. In this case, the peak heights of the separated substrate and the phosphorylated substrate were represented as S and P, respectively, and the percent inhibition (%) by a tested compound was calculated according to the following formula: Percent inhibition(%)=(1−(C−A)/(B−A))×100 wherein A denotes P/(P+S) for a blank well, B denotes P/(P+S) for a solvent well, and C denotes P/(P+S) for a compound-added well.
The IC50 value of a tested compound was calculated by regression analysis of the percent inhibition values versus the (logarithmic) concentrations of the tested compound.

| SMILES | inhibition at 0.1 µM [1] | IC50 [2] |
| --- | --- | --- |
| COCCOC(=O)C1=C(Nc2ccccc2Cl)O/C(=C\c2c[nH]c3ncccc23)C1=O [Example 173, 2-Methoxyethyl 5-[(1H-pyrrolo[2,3-b]pyridin-3-yl)methylene]-2-[(2-chlorophenyl)amino]-4-oxo-4,5-dihydrofuran-3-carboxylate] | < 20% | 3 nM |
| CC(C)OC(=O)C1=C(NN2CCOCC2)O/C(=C\c2c[nH]c3ncccc23)C1=O [Example 245, Isopropyl 5-[(1H-pyrrolo[2,3-b]pyridin-3-yl)methylene]-2-(morpholinoamino)-4-oxo-4,5-dihydrofuran-3-carboxylate] | < 20% | 8 nM |
